Results as given in US12692232B2, “Indole carboxamide compound, preparation therefor and use thereof” (NANJING RUISHUNING MEDICAL TECHNOLOGY CO., LTD., priority 2021, dated 2026).

Biological target: T1, TRPC6 channel (Homo sapiens, UniProt Q9Y210)
T1 sequence (Q9Y210 1-931): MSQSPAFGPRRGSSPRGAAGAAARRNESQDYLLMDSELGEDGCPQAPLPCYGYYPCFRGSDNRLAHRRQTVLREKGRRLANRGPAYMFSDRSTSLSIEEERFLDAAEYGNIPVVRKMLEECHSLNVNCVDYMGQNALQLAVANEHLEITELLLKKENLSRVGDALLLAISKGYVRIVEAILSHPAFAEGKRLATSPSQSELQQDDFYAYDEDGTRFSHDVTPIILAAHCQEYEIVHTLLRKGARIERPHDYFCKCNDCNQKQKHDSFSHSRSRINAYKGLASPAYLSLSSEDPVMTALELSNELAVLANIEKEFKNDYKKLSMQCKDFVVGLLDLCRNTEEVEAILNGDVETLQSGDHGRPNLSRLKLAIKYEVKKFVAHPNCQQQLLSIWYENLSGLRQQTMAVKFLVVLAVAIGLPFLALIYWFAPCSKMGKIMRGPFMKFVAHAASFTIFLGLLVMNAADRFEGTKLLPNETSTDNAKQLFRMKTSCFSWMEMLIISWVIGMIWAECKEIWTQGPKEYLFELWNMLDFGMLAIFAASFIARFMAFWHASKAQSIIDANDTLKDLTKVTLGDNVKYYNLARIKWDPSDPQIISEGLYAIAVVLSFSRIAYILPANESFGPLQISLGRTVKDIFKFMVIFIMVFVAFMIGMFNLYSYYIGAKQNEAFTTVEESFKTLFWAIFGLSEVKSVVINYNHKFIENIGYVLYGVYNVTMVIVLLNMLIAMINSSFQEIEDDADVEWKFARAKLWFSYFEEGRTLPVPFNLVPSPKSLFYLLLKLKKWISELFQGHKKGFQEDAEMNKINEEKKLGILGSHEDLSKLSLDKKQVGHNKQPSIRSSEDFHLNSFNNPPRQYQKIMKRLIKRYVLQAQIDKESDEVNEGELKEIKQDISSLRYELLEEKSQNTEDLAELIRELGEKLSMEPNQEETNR
Assay: IC50 on TRPC6 channel-mediated Ca2+ entry in HEK293hTRPC6 cells
Type: cell-based
Parameters: expressed in transfected cells; host or cells: HEK293 (lentiviral transduction, puromycin selection)
Details: HEK293hTRPC6, OAG 80 μM, Ca2+ 2 mM
Method: The half maximal inhibitory concentrations (IC50) of the compounds of the present invention (as exemplified by Compound 1-1 obtained in Example 1) on TRPC6 channel-mediated Ca^2+ entry were determined using HEK293hTRPC6, a tool cell overexpressing TRPC6 protein. Methods were as follows: HEK293hTRPC6, a tool cell overexpressing TRPC6 protein, was established in the same manner as in Example 7.
Determination of the effect of compounds on changes in intracellular calcium ion concentration in HEK293hTRPC6 cells: the mother solution of the compounds was diluted to the following concentrations, 0.1 nM, 0.3 nM, 1 nM, 3 nM, 10 nM, 30 nM, 100 nM, 300 nM, 1,000 nM, and 3,000 nM, respectively, using cell culture medium. […] The crawls were placed in the center of the bath, perfused with calcium-free Tyrode's solution for 5 min and fixed on the stage of an inverted fluorescence microscope. […] Fluorescence intensity was measured at different excitation wavelengths (340 nm, 380 nm) using a TILL Ion Imaging System (TILLvisION), and the value of fluorescence intensity emitted by intracellular fluorescent probe at different excitation wavelengths was substituted into the formula: [Ca^2+]i=Kd×β×(R−Rmin)/[…]. […] Dose-effect curves were fitted using GraphPad Prism software and the IC50 was calculated.

| SMILES | IC50 [nM] |
| --- | --- |
| Cn1c(C(=O)NCCC(=O)O)cc2ccccc21 [3-[(1-methyl-1H-indole-2-carbonyl)amino]propionic acid, reference compound] | 24.1 |
| CC(=O)OCCCNC(=O)c1c(C=O)c2ccccc2n1C [compound 1-1, propyl 3-[(3-formyl-1-methyl-1H-indole-2-carbonyl)amino]acetate] | 11.4 |
